From paper PMC9127186, “Molecular Basis Underlying Hepatobiliary and Renal Excretion of Phenolic Acids of Salvia miltiorrhiza Roots (Danshen)” (Frontiers in Pharmacology, 2022)

What was measured:
[1] = biological target: T1, human OAT4 (Homo sapiens, UniProt Q9NSA0); experiment: Cellular transport assay, HEK-293 cells expressing human OAT4; conditions: positive substrate 20 μM, 10 min; human OAT4
T1 sequence (Q9NSA0 1-550): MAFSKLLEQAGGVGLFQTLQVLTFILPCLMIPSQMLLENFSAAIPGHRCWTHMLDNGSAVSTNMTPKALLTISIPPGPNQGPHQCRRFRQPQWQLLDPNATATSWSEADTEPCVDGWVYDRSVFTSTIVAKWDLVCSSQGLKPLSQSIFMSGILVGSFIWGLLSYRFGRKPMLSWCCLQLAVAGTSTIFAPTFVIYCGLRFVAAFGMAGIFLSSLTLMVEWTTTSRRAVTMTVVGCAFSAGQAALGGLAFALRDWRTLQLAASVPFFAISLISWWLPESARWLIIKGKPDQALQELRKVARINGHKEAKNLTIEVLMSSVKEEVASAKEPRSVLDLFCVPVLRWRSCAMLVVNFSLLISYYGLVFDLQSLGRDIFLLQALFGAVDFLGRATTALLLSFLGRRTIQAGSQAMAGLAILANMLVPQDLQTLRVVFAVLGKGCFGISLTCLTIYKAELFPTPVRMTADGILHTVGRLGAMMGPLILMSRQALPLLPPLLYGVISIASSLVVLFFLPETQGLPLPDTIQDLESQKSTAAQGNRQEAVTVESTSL
Procedure: (§1) Briefly, HEK-293 cells were grown, at 37°C and 5% CO2, in Dulbecco’s modified Eagle’s medium, which was fortified with 10% fetal bovine serum, 1% minimal essential medium nonessential amino acids, and 1% antibiotic-antimycotic solution. A day before transfection, cells were seeded onto 24-well poly-D-lysine-coated plates at a density of 2 × 10^5 cells per well. After incubation at 37°C and 5% CO2 for 24 h, the expression plasmid and the empty vector were introduced separately into the HEK293 cells with Lipofectamine 2000 transfection reagent (Invitrogen, Carlsbad, CA, United States), according to the manufacturer’s protocol to yield transporter-expressing cells and mock cells, respectively.
(§2) Transport studies were performed 48 h after the transfection. […] Differential uptake between the transfected cells and mock cells was defined as net transport ratio (TransportTC/TransportMC ratio), where TransportTC and TransportMC are the transport rates of a test Danshen compound into transfected and mock cells, respectively. […] The determination was performed under linear uptake conditions by incubation for 5 min. Table 1 summarizes the final concentrations of the test Danshen compounds for different transporters. All the incubation samples were analyzed by liquid chromatography/mass spectrometry.
(§3) GraFit software (version 5.0; Erithacus Software Ltd, Surrey, United Kingdom) was used to determine the K m and V max values by nonlinear regression analysis of initial transport rates as a function of substrate concentration.

[2] = biological target: T2, rat Oat3 (Rattus norvegicus, UniProt Q9R1U7); experiment: Cellular transport assay, HEK-293 cells expressing rat Oat3; conditions: positive substrate 20 μM, 10 min; rat Oat3
T2 sequence (Q9R1U7 1-536): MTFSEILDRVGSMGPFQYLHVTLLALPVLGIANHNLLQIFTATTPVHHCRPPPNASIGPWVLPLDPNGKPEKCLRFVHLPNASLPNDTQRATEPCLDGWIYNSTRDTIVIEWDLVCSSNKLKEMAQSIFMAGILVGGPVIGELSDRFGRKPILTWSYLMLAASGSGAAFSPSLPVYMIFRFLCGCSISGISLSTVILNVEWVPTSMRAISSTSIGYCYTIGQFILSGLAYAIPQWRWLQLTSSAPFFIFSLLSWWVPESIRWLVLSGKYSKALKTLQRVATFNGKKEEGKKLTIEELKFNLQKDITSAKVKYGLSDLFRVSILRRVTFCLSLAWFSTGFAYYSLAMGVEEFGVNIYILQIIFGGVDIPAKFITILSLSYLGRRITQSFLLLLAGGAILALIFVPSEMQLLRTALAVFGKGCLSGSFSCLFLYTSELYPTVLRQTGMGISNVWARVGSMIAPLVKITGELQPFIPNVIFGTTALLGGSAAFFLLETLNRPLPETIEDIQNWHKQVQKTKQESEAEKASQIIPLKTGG
Procedure: as §1, §2, §3

[3] = biological target: T3, human OAT3 (Homo sapiens, UniProt Q8TCC7); experiment: Cellular transport assay, HEK-293 cells expressing human OAT3; conditions: positive substrate 20 μM, 10 min; human OAT3
T3 sequence (Q8TCC7 1-542): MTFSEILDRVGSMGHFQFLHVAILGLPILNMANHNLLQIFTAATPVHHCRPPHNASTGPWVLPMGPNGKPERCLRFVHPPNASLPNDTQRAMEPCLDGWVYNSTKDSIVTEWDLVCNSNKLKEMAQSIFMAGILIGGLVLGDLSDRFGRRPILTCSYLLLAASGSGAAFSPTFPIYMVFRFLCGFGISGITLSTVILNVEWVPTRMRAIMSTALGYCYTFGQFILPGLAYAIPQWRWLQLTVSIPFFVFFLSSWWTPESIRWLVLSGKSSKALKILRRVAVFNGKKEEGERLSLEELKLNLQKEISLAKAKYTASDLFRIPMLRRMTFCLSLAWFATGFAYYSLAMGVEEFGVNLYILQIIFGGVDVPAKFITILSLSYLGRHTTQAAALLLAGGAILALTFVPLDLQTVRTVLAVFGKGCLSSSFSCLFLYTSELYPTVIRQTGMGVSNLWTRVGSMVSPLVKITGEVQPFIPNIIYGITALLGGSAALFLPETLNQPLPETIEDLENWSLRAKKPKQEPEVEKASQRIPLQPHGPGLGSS
Procedure: as §1, §2, §3

[4] = biological target: T4, human OATP2B1 (Homo sapiens, UniProt O94956); experiment: Cellular transport assay, HEK-293 cells expressing human OATP2B1; conditions: positive substrate 20 μM, 10 min; human OATP2B1
T4 sequence (O94956 1-709): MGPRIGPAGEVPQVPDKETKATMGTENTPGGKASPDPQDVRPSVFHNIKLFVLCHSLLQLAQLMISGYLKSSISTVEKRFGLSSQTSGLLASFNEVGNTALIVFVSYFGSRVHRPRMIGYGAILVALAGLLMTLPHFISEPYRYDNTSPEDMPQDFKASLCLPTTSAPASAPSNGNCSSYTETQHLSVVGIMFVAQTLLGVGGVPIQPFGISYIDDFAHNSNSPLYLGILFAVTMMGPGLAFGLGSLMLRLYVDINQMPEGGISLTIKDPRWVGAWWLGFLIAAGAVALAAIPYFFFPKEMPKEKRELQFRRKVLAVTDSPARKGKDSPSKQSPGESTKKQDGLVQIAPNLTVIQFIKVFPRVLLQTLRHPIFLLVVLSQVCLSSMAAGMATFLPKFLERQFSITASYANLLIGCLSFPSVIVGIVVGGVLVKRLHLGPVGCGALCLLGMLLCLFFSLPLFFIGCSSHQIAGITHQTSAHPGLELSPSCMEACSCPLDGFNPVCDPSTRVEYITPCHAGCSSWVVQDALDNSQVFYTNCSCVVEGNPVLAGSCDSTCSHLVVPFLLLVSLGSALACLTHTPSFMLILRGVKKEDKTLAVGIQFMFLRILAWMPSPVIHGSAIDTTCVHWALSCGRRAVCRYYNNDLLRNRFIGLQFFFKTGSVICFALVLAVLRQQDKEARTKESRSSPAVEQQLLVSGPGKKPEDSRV

[5] = biological target: human BSEP (Homo sapiens, UniProt O95342); experiment: Vesicular transport assay, inside-out membrane vesicles expressing human BSEP; conditions: positive substrate 20 μM, 10 min; human BSEP
Chain of human BSEP (O95342 whole entry): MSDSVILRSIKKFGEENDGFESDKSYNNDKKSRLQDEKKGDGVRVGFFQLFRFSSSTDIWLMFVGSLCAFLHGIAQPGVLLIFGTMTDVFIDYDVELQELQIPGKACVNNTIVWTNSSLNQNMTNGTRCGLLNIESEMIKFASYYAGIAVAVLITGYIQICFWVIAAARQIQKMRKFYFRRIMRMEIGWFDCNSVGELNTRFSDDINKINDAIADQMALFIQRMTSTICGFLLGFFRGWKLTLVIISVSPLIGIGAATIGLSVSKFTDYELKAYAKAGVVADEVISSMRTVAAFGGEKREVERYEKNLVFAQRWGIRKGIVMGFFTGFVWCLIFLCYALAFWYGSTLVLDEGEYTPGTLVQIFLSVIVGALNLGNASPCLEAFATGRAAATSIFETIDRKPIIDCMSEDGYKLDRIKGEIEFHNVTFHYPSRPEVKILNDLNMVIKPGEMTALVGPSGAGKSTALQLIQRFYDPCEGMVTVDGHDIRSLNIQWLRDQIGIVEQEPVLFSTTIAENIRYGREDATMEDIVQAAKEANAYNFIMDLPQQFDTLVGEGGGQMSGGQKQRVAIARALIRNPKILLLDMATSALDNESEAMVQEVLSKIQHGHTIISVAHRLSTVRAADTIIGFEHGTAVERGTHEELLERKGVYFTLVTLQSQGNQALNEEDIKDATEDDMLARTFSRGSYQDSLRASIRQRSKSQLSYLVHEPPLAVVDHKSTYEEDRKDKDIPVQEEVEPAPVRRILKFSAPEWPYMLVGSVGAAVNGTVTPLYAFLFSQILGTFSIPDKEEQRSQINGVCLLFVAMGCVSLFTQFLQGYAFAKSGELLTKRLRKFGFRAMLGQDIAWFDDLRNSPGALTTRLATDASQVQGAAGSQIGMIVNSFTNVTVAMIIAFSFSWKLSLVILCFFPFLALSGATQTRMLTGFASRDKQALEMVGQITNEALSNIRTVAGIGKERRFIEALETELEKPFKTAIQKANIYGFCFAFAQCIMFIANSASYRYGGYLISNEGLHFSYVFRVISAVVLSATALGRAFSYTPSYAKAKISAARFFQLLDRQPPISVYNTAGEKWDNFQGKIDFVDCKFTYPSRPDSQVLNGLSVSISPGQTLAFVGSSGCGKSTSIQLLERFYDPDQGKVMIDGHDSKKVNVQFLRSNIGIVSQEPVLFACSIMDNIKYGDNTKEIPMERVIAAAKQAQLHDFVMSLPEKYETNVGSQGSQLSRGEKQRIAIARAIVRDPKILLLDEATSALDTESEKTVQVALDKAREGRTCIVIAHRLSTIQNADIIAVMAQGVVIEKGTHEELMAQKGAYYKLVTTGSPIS
Procedure: (§4) Inside-out membrane vesicles (5 mg protein/mL), prepared from insect cells expressing human multidrug resistance-associated protein (MRP) 2, MRP3, MRP4, breast cancer resistance protein (BCRP), bile salt export pump (BSEP), and multidrug resistance protein (MDR) one and rat Mrp2, Mrp4, Bcrp, and Bsep, and vesicles (5 mg protein/mL; prepared from the insect cells expressing no ABC transporter; serving as negative control) were obtained from Genomembrane (Kanazawa, Japan).
(§5) The test Danshen compounds at 100 µM final concentration were separately incubated with the membrane vesicles for 10 min. Buffer C (50 mM MOPS-tris, 70 mM KCl, 7.5 mM MgCl2, pH 7.0) was used for preincubation and incubation, while buffer D (40 mM MOPS-tris, 70 mM KCl, pH 7.0) was used for vesicle washing. The transport rate (pmol/mg protein/min) of the test Danshen compound was calculated using Equation (2): Transport=(CV×VV)/T/WV (2) where C V, V V, T, and W V represent concentration of the compound in vesicular lysates supernatant (μM), volume of the lysates (μL), incubation time (10 min), and amount of vesicle protein amount per well (0.05 mg), respectively. Differential transport of the test Danshen compound between ATP-containing vesicles and AMP-containing vesicles was defined as net transport ratio (TransportATP/TransportAMP ratio). […] All the incubation samples were analyzed by liquid chromatography/mass spectrometry.

[6] = biological target: T5, rat Bsep (Rattus norvegicus, UniProt O70127); experiment: Vesicular transport assay, inside-out membrane vesicles expressing rat Bsep; conditions: positive substrate 20 μM, 10 min; rat Bsep
T5 sequence (O70127 1-1321): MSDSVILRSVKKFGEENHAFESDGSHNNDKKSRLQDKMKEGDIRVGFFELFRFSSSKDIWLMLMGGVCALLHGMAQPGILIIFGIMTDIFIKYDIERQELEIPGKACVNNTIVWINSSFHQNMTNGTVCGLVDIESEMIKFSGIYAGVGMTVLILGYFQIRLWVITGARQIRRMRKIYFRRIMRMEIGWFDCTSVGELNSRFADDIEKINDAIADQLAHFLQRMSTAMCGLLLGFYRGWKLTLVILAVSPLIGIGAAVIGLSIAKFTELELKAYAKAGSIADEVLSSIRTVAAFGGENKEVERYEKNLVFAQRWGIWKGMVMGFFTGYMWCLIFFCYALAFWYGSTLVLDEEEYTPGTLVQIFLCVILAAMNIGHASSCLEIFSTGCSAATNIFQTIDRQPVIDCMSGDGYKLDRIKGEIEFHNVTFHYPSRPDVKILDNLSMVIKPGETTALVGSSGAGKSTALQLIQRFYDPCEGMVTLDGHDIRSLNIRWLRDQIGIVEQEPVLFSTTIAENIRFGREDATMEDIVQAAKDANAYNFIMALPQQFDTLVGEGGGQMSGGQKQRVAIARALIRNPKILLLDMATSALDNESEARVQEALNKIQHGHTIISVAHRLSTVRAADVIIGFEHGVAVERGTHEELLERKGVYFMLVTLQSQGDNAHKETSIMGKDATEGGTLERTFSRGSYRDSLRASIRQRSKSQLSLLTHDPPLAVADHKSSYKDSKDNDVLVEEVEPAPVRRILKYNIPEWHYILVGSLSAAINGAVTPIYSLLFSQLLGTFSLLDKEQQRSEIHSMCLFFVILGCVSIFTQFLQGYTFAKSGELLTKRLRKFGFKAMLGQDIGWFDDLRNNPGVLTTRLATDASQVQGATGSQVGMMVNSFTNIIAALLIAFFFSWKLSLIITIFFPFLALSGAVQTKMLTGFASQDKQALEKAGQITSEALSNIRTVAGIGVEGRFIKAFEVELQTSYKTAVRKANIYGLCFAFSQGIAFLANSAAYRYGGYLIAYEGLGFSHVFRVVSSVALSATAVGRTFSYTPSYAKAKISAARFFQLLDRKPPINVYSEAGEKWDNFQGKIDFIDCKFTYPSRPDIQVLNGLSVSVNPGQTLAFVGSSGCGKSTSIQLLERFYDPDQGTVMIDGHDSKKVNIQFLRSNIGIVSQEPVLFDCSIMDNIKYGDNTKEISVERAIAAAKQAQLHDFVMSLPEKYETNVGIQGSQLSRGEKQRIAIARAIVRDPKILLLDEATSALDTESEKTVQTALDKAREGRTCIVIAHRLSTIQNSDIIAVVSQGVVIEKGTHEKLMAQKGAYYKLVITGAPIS
Procedure: as §4, §5

[7] = biological target: T6, rat Ntcp (Rattus norvegicus, UniProt P26435); experiment: Cellular transport assay, HEK-293 cells expressing rat Ntcp; conditions: positive substrate 20 μM, 10 min; rat Ntcp
T6 sequence (P26435 1-362): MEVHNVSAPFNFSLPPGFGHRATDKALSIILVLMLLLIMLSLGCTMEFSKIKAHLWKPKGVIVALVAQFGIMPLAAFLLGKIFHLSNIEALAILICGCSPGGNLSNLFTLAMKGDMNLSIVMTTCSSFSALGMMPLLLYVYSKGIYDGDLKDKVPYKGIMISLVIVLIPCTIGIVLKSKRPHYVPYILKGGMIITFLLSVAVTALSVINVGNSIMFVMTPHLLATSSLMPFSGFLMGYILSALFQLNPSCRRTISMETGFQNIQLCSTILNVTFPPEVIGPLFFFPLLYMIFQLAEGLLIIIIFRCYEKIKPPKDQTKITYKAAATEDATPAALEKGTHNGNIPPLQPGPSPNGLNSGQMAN

[8] = biological target: T7, human NTCP (Homo sapiens, UniProt Q14973); experiment: Cellular transport assay, HEK-293 cells expressing human NTCP; conditions: positive substrate 20 μM, 10 min; human NTCP
T7 sequence (Q14973 1-349): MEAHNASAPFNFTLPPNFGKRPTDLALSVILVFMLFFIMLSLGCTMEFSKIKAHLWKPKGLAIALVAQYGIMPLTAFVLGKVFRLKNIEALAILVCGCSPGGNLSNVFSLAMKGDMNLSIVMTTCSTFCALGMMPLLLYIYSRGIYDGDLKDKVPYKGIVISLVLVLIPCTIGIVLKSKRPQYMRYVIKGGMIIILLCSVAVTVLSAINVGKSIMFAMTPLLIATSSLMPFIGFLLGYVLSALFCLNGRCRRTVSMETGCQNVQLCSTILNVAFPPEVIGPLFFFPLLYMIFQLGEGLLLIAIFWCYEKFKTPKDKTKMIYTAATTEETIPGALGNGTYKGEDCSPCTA

Row | Compound | TransportTC/TransportMC ratio, positive substrate [1] | TransportTC/TransportMC ratio, positive substrate [2] | TransportTC/TransportMC ratio, positive substrate [3] | TransportTC/TransportMC ratio, positive substrate [4] | TransportATP/TransportAMP ratio, positive substrate [5] | TransportATP/TransportAMP ratio, positive substrate [6] | TransportTC/TransportMC ratio, positive substrate [7] | TransportTC/TransportMC ratio, positive substrate [8]
1 | C[C@]12CC[C@@H]3c4ccc(OS(=O)(=O)O)cc4CC[C@H]3[C@@H]1CCC2=O [E1S, estrone-3-sulfate, reference compound] | 7.69 ± 1.74 (E1S) | 21.4 ± 6.8 (E1S) | 10.2 ± 1.2 (E1S) | 41.1 ± 1.5 (E1S) | – | – | – | –
2 | C[C@H](CCC(=O)NCCS(=O)(=O)O)[C@H]1CC[C@H]2[C@@H]3[C@H](O)C[C@@H]4C[C@H](O)CC[C@]4(C)[C@H]3C[C@H](O)[C@]12C [TCA, taurocholic acid, reference compound] | – | – | – | – | 4.03 ± 0.89 (TCA) | 5.14 ± 0.88 (TCA) | 134 ± 15 (TCA) | 144 ± 30 (TCA)
